Results as given in PMC2731040 (BMC Clinical Pharmacology, 2009).

What was measured:
[1] = Plasma pharmacokinetics of cocaine and benzoylecgonine after IV cocaine-d5 infusion; conditions: plasma, mean ± SD; for half-life / AUC(0-t) / AUC(0-inf) / clearance / Tmax / Vd / Cmax / k el: human, in vivo; for half-life: (t1/2)z; for clearance: CL; for Vd: Vz; for Cmax: iv, cocaine-d5 IV 0.5 mg/kg over 10 min then 2 mg/kg over 4 h; for k el: λz
Method: In this open-label, unblinded study, a 0.5 mg/kg intravenous loading dose of cocaine-d5 HCl over 10 minutes was followed by a slow 4 hour constant rate cocaine-d5 infusion of 2.0 mg/kg(~175 mg for a 70 kg person). […] When this method of cocaine administration is utilized, a larger dose can be given over a longer period of time and approximates frequently reported patterns of cocaine use. This method also allowed for close monitoring and termination of the infusion if untoward psychiatric or cardiovascular effects occurred.
For both cocaine infusions (sessions 1 and 2), plasma samples for cocaine and metabolites (~6 ml) were obtained 5 minutes before and 10 minutes, 0.5, 1, 1.5, 2, 4, 4.25, 4.5, 5, 6, 8, 12, 21, 27, 33, and 45 hours after each cocaine infusion.
Plasma concentrations of cocaine and benzoylecgonine were measured in our laboratory using a method we developed. The method allows for simultaneous determination of cocaine, benzoylecgonine, and deuterium-labeled analogs [cocaine-d5 and benzoylecgonine-d5 (BE-d5)] by using combined gas chromatography-mass spectrometry (GC-MS). Differently labeled stable isotope analogs were used as internal standards. The calibration curves were from 5 to 2,000 ng/mL for cocaine-d5 and 10 to 2,000 ng/mL for BE-d5. Lower limits of quantitation (LLOQ) were 5 ng/ml (cocaine-d5) and 10 ng/ml (BE-d5) in plasma. Qualitative urine benzoylecgonine was measured by Northwest Toxicology Laboratory, Salt Lake City, Utah, using the Roche Diagnostics Online® immunoassay.
The plasma concentration-time profiles for cocaine and benzoylecgonine (BE) were analyzed by non-compartmental methods, utilizing the pharmacokinetic data analysis program WinNonlin Pro, version 3.0 [31].
The area under the plasma concentration-time curve was calculated using the linear trapezoidal rule up to the maximum plasma concentration, and thereafter using the logarithmic trapezoidal rule to the last measurable plasma concentration. The remaining area was extrapolated to infinity by dividing the last appropriate plasma concentration by the terminal exponential rate constant.
Maximum plasma concentration (Cmax) and time of maximum plasma concentration (Tmax) were determined by visual inspection of data. "Terminal" exponential half-life [(t1/2)z] was calculated from log-linear regression of "terminal" exponential phase data points. Cocaine clearance (CL) and terminal exponential volume of distribution (Vz) were calculated by conventional equations: CL = [Dose/Area under the curve (AUC)0-∞] and Vz = CL/λz, respectively, where λz ("terminal" exponential rate constant) = ln2/(t1/2)z. […] Amount of BE in urine samples was calculated by multiplying concentration by volume.

[2] = tested on: nondependent cocaine-experienced subjects; assay: Adverse events and cardiovascular safety monitoring; assay type: in vivo, human
Method: Heart rate, blood pressure, respiration rate, skin and core temperature were recorded at specific times during the study. During infusions, measures were obtained pre-dose and at 0.17, 0.5, 0.75, 1, 1.5, 2, 2.5, 3, 3.5, 4, 4.25, 4.5, 5, 6, 8, 12, 18, 24, 36, 48, and 72 hours after dosing. The electrocardiogram was monitored continuously during the infusion and for 4 hours after the termination of the intravenous cocaine infusion. EKG tracings were recorded at each data collection point.

[3] = tested on: nondependent cocaine-experienced subjects; assay: Subjective measures (verbal ratings, visual analog scales, POMS) during cocaine challenge sessions; assay type: in vivo, human; conditions: for Cocaine Craving (0–100), Peak change / Global Intoxication (0–100), Peak change: verbal rating; for Bad Drug Effect (0–100), Peak change / Good Drug Effect (0–100), Peak change: visual analog scale
Text: Verbal ratings of global intoxication and craving (on a scale of 0 to 100) were obtained at the same time points as the physiologic measures, with 0 representing no drug effect and 100 representing the highest level of intoxication or craving.
Visual analog scales were used to rate the degree of drug liking by moving an arrow along a 10 cm line marked at opposite ends as 0 (not at all) and 100 (extreme) using a hand-held computer (Tandy 102). Items rated on the visual analog scale included "good drug effect" and "bad drug effect," and were obtained prior to cocaine infusion and at 0.17, 0.5, 0.75, 1, 1.5, 2, 2.5, 3, 3.5, 4, 4.25, 4.5, 5, 6, and 8 hours after dosing.
The Profile of Mood States (POMS) assessed mood changes in Anger, Confusion, Fatigue, Tension, and Vigor on a scale from 0 to 4, where 0 indicated "no effect" and 4 indicates "extremely strong". Ratings were obtained prior to cocaine infusion and at 1, 3, and 6 hours after dosing.
The time courses of physiologic and subjective data were analyzed by repeated measures analysis of variance (ANOVA). Treatment conditions (Sessions 1 and 2) and observation times (hours post-dose) were considered within-subject factors. Change scores (post-dose minus pre-dose values) were used in most analyses. Raw score were used where indicated. After a significant F test, pairwise comparisons of treatment conditions were performed using the least squares means analysis. Peak effects within a session were determined for each subject and each variable and analyzed using a one-factor repeated measures ANOVA. Effects were considered statistically significant at p = 0.05. Data were adjusted for sphericity using the Huynh-Feldt adjustment factor. Huynh-Feldt-corrected significance values are reported.

[4] = Session 1: first cocaine infusion, before selegiline
[5] = Session 2: second cocaine infusion, after one week of selegiline STS

COC(=O)[C@H]1[C@@H](OC(=O)c2ccccc2)C[C@@H]2CC[C@H]1N2C [Cocaine, cocaine]
AUCext ([1]; Pre Selegiline (session 1)): 1.40 ± 1.03% | AUCext ([1]; With Selegiline (session 2)): 1.78 ± 1.87% | half-life ([1]; Pre Selegiline (session 1)): 1.71 ± 0.81 h | half-life ([1]; With Selegiline (session 2)): 1.57 ± 0.3 h | AUC(0-t) ([1]; Pre Selegiline (session 1)): 2640 ± 55.6 ng·h/mL | AUC(0-t) ([1]; With Selegiline (session 2)): 2360 ± 499 ng·h/mL | AUC(0-inf) ([1]; Pre Selegiline (session 1)): 2680 ± 1470 ng·h/mL | AUC(0-inf) ([1]; With Selegiline (session 2)): 2400 ± 487 ng·h/mL | clearance ([1]; Pre Selegiline (session 1)): 18.3 ± 6.17 mL/min/kg | clearance ([1]; With Selegiline (session 2)): 18 ± 3.34 mL/min/kg | Tmax ([1]; Pre Selegiline (session 1)): 2.66 ± 1.74 h | Tmax ([1]; With Selegiline (session 2)): 2.27 ± 2.04 h | Vd ([1]; Pre Selegiline (session 1)): 2.49 ± 0.88 L/kg | Vd ([1]; With Selegiline (session 2)): 2.44 ± 0.64 L/kg | Cmax ([1]; Pre Selegiline (session 1)): 721 ± 773 ng/mL | Cmax ([1]; With Selegiline (session 2, after one week STS 6 mg/24 hours)): 640 ± 332 ng/mL | k el ([1]; Pre Selegiline (session 1)): 0.000126 s⁻¹ | k el ([1]; With Selegiline (session 2)): 0.000127 s⁻¹ | Adverse events ([2]; STS 6 mg/24 hours, cocaine-d5 IV 2.5 mg/kg over 4 hours): One subject vomited | Adverse effects of cocaine following selegiline administration ([2]; cocaine infusion after one week of STS): No significant adverse effects | Bad Drug Effect, Peak Time [3, 4]: 1.9 ± 2.3 Hr Postdose | Cocaine Craving, Peak Time [3, 4]: 1.1 ± 1.3 Hr Postdose | Global Intoxication, Peak Time [3, 4]: 0.7 ± 1 Hr Postdose | Good Drug Effect, Peak Time [3, 4]: 0.9 ± 1.5 Hr Postdose | POMS Anger (0–28), Peak change [3, 4]: 2.8 ± 6.4 | POMS Anger, Peak Time [3, 4]: 6 ± 0 Hr Postdose | POMS Confusion (0–20), Peak change [3, 4]: 2.5 ± 2.8 | POMS Confusion, Peak Time [3, 4]: 6 ± 0 Hr Postdose | POMS Depression (0–64), Peak change [3, 4]: 3 ± 6.5 | POMS Depression, Peak Time [3, 4]: 3 ± 0 Hr Postdose | POMS Fatigue (0–28), Peak change [3, 4]: 5.9 ± 5.9 | POMS Fatigue, Peak Time [3, 4]: 6 ± 0 Hr Postdose | POMS Tension (0–28), Peak change [3, 4]: 7.5 ± 6.1 | POMS Tension, Peak Time [3, 4]: 1 ± 0 Hr Postdose | POMS Vigor (0–32), Peak change [3, 4]: -3.6 ± 3.4 | POMS Vigor, Peak Time [3, 4]: 6 ± 0 Hr Postdose | Cocaine Craving (0–100), Peak change [3, 4]: 33 ± 25 | Global Intoxication (0–100), Peak change [3, 4]: 57 ± 27 | Bad Drug Effect (0–100), Peak change [3, 4]: 46 ± 31 | Good Drug Effect (0–100), Peak change [3, 4]: 66 ± 23 | Bad Drug Effect, Peak Time [3, 5]: 1.4 ± 1.9 Hr Postdose | Cocaine Craving, Peak Time [3, 5]: 0.6 ± 0.7 Hr Postdose | Global Intoxication, Peak Time [3, 5]: 0.6 ± 0.9 Hr Postdose | Good Drug Effect, Peak Time [3, 5]: 1 ± 1.3 Hr Postdose | POMS Anger, Peak Time [3, 5]: 6 ± 0 Hr Postdose | POMS Confusion (0–20), Peak change [3, 5]: 2.7 ± 4.7 | POMS Confusion, Peak Time [3, 5]: 3 ± 0 Hr Postdose | POMS Depression (0–64), Peak change [3, 5]: 1.5 ± 2.4 | POMS Depression, Peak Time [3, 5]: 3 ± 0 Hr Postdose | POMS Fatigue (0–28), Peak change [3, 5]: 2.8 ± 5.3 | POMS Fatigue, Peak Time [3, 5]: 6 ± 0 Hr Postdose | POMS Tension (0–28), Peak change [3, 5]: 4.8 ± 3.9 | POMS Tension, Peak Time [3, 5]: 1 ± 0 Hr Postdose | POMS Vigor (0–32), Peak change [3, 5]: -3.9 ± 6.1 | POMS Vigor, Peak Time [3, 5]: 6 ± 0 Hr Postdose | POMS Anger (0–28), Peak change ([3]; Session 2: second cocaine infusion, after one week of selegiline STS, significantly different from Session 1 (p < 0.03)): -2.1 ± 5.7 | Cocaine Craving (0–100), Peak change [3, 5]: 20 ± 21 | Global Intoxication (0–100), Peak change [3, 5]: 53 ± 23 | Bad Drug Effect (0–100), Peak change [3, 5]: 55 ± 25 | Good Drug Effect (0–100), Peak change [3, 5]: 60 ± 21 | Global intoxication, verbal ratings of craving, and good drug effect compared to baseline ([3]; both cocaine challenge sessions): increased
